From ChEMBL document CHEMBL1121986, “Spiro oxazolidinedione aldose reductase inhibitors” (J Med Chem, 1982)
Activity calls are given as the source filed them. The calls are words filed in the database; no cut-off is given here.

Tests used:
[1] = molecular target: T1, Aldo-keto reductase family 1 member B1 (Bos taurus, UniProt P16116); experiment: Inhibitory concentration was determined against partially purified calf lens aldose reductase using glyceraldehyde as a substrate; 10e-6/10e-7
[2] = test system: Rattus norvegicus; experiment: Dose required for reduction of sorbitol accumulation in the sciatic nerve in streptozotocin-diabetic rats in vivo; assay type: functional
[3] = molecular target: T1, Aldo-keto reductase family 1 member B1; experiment: Inhibitory concentration was determined against partially purified calf lens aldose reductase using glyceraldehyde as a substrate
[4] = molecular target: T1, Aldo-keto reductase family 1 member B1; experiment: Inhibitory concentration was determined against partially purified calf lens aldose reductase using glyceraldehyde as a substrate; 10e-7/10e-8
[5] = molecular target: T1, Aldo-keto reductase family 1 member B1; experiment: Inhibitory concentration was determined against partially purified calf lens aldose reductase using glyceraldehyde as a substrate; 10e-4/10e-5
[6] = test system: Rattus norvegicus; experiment: Dose required for reduction of sorbitol accumulation in the sciatic nerve in streptozotocin-diabetic rats in vivo; Inactive; assay type: functional, organism-based
[7] = Rattus norvegicus, Sciatic nerve, read-out: ED50

| Structure (SMILES) | ED50 [2, 7] [mg/kg] | IC50 [3] [µM] | also measured |
| --- | --- | --- | --- |
| Cc1cc(Cl)cc2c1OCCC21OC(=O)NC1=O (stereo not given) | > 1.5 |  | IC50 [1]: 10 µM |
| O=C1NC(=O)C2(CCOc3ccc(Br)cc32)O1 (stereo not given) | > 1.5 | 1 |  |
| O=C1NC(=O)C2(CCOc3ccccc32)O1 (stereo not given) |  | 100 |  |
| O=C1NC(=O)C2(CCSc3ccc(Cl)cc32)O1 (stereo not given) | > 1.5 |  | IC50 [1]: 10 µM |
| O=C1NC(=O)C2(CCOc3ccc(F)cc32)O1 (stereo not given) | > 1.5 |  | IC50 [1]: 10 µM |
| O=C1NC(=O)C2(CCOc3ccc(Cl)cc32)O1 (stereo not given) | > 1.5 |  | IC50 [1]: 10 µM |
| O=C1N=C(O)OC12CCOc1ccc(Cl)cc12 (single isomer, unassigned; (-)) |  | 1 |  |
| O=C1NC(=O)C2(CCSc3ccc(F)cc32)O1 (stereo not given) | 25 | 10 |  |
| O=C1NC(=O)C2(CCSc3ccccc32)O1 (stereo not given) | 25 | 10 |  |
| O=C1N=C(O)OC12CCOc1c(Cl)cc(Cl)cc12 (single isomer, unassigned; (+)) |  | 100 |  |
| O=C1NC(=O)C2(CCOc3c(Cl)cc(Cl)cc32)O1 (stereo in doubt; 14) | > 1.5 |  | IC50 [4]: 1 µM |
| O=C1N=C(O)OC12CCOc1ccc(Cl)cc12 (single isomer, unassigned; (+)) |  |  | IC50 [5]: 1000 µM |
| O=C1NC(=O)C2(CCc3ccccc32)O1 (stereo not given) | > 25 | 100 |  |
| O=C1NC(=O)C2(CCOc3c(Cl)cc(Cl)cc32)O1 (stereo in doubt; 23) |  |  | ED50 [2]: 1.5 mg/kg |
| O=C1NC(=O)C2(CCCc3ccccc32)O1 (stereo not given) |  | 100 | ED50 [6]: inactive |
